This is an account of results in patent publication US20040077611A1, “Triple therapy of angiotensin converting enzyme inhibitor epoxy-steroidal aldosterone antagonist and diuretic or digoxin for treatment of cardiovascular disease” (G.D. Searle & Co., priority 1999, published 2004).

In series [1] the test system is patients with impaired ejection fraction post AMI. Particulars: cited from earlier work.
For series [2], the system named is myocardial fibrosis in animal models. Conditions: cited from earlier work.
Series [3] relates to patients with severe HF (NYHA Class III or IV). Particulars: cited from earlier work.
Series [4] relates to patients afflicted with congestive heart failure. Conditions: cited from earlier work.
Series [5] concerns patients with stable NYHA Class II-IV heart failure. Description: Clinical trial of eplerenone added to ACE inhibitor and loop diuretic in heart failure (Biological Evaluation I). Particulars: for plasma renin activity (PRA): 12 weeks of treatment, FIG. 28.
Series [6] relates to patients alive at Day 3 with Killip class >I. Particulars: patients randomized to lisinopril; ACE-I treatment stopped at 42 days; cited from earlier work.
The next series relates to humans. Description: Effects of eplerenone pharmaceutical compositions in humans after oral administration. Type of series: in vivo.
Series [7] is described as follows: Solubility of eplerenone in crystallization solvents. Type of series: physicochemical. Conditions: organic crystallization solvent or mixture of solvents, room temperature.
The test system of series [8] is patients with stable NYHA Class II-IV heart failure. Particulars: human, in vivo.
Series [9] concerns patients with LV dysfunction 2 to 6 days following MI. Conditions: cited from earlier work.
Series [10] has as its system patients with clinical evidence of HF at any time after an AMI. Particulars: cited from earlier work; for risk reduction in all cause mortality: compared to placebo (p=0.002).
Series [11] has as its system patients with severe HF (NYHA Class IV). Particulars: cited from earlier work.
Series [12] in a line: Physical stability of solid state forms of eplerenone. It counts as physicochemical. Particulars: temperatures below the enantiotropic transition temperature.
Series [13] in a line: Dissolution rate of unformulated solid state forms of eplerenone. Particulars: temperatures below the enantiotropic transition temperature. Type of series: physicochemical.
The mark [14] stands for this setting: humans, over about 12 to 24 hours after ingestion of the composition.

In brackets after ≈: the same amount, converted by molar mass. Like-named read-outs stand apart in the source and are kept apart here.

With `CC(=O)S[C@@H]1CC2=CC(=O)CC[C@]2(C)[C@H]2CC[C@@]3(C)[C@@H](CC[C@@]34CCC(=O)O4)[C@H]12` [spironolactone], the “ventricular dilatation and systolic dysfunction” value in series [1] was “prevented ventricular dilatation and further decline of systolic dysfunction”. Also, the myocardial fibrosis entry in series [2] (Klug et al) is given as “prevents myocardial fibrosis”. In series [2] (irrespective of the development of left ventricular hypertrophy and the presence of hypertension, Brilla et al), the fibrosis result is recorded as “prevent fibrosis”. For the same compound, the “reduction in mortality compared to placebo” value in series [3] (as restated) is listed as above 30%. Besides, the “median increase in serum potassium concentration” value in series [3] (compared to patients treated with placebo) was “statistically but not clinically significant”. Moreover, in [3] (spironolactone 25 mg daily added to standard therapy vs standard therapy plus placebo (p<0.001)), the “risk reduction for all cause mortality” value is listed as 30%. Further, the “lower frequency of hospitalization for worsening HF” value in series [3] (vs placebo patients) is listed as 35%. In [4] (co-therapy of spironolactone and enalapril), the clinical outcome is recorded as “Clinical improvements”. Further, the “patients in whom co-therapy was highly effective” value in [4] (spironolactone coadministered with an ACE inhibitor) is reported as 13 of 16. The “plasma renin activity (PRA)” value in series [5] is on record as “significantly elevated”. The testosterone levels entry in series [5] (males) is on record as “significant increase”.
In the case of `NCCCC[C@H](N[C@@H](CCc1ccccc1)C(=O)O)C(=O)N1CCC[C@H]1C(=O)O` [lisinopril], the first-year mortality in series [6] is 22%.
Turning to `COC(=O)[C@@H]1CC2=CC(=O)CC[C@]2(C)[C@@]23O[C@@H]2C[C@@]2(C)[C@@H](CC[C@@]24CCC(=O)O4)[C@H]13` [eplerenone, Pregn-4-ene-7,21-dicarboxylic acid, 9,11-epoxy-17-hydroxy-3-oxo-, γ-lactone, methyl ester, (7^α, 11^α, 17^α)-], in the series on humans (setting [14]), the “average decrease in diasystolic blood pressure” value is “at least 5%”, the “average increase in blood serum aldosterone concentrations” value is on record as “at least 50%”, the “average increase in blood serum renin concentration” value was “at least 10%” and the “urinary log10 (sodium/potassium) ratio” value is given as “increase”. The “efficacy of the required daily dosage, once-a-day relative to twice-a-day administration” value in the series with humans (in vivo) is recorded as “does not appear to materially differ”. In addition, the solubility in [7] was 5 to 200 mg/mL (≈ 12.1 to 483 mM). Further, the testosterone levels result in [8] was “lack of effect”. For the same compound, the “plasma renin activity (PRA)” value in [5] is “significantly elevated”. For the same compound, in series [5] (eplerenone at 25 mg and 100 mg, all patients, FIG. 29), the “reduction in BNP” value is listed as “highly significant”. The “urinary aldosterone excretion, increase from baseline” value in series [5] (eplerenone doses of 50 and 100 mg, 12 week visit) is given as “Greater increases”.
Take `CCOC(=O)[C@H](CCc1ccccc1)N[C@@H](C)C(=O)N1[C@H](C(=O)O)C[C@H]2CCCC[C@@H]21` [trandolapril]: the “relative reduction in the risk of death” value in series [9] (compared to placebo (p=0.001)) was 18%. Moreover, in [9] (compared to placebo (p=0.003)), the “reduction in the risk of progression to severe HF” value is 29%.
Take `CCOC(=O)[C@H](CCc1ccccc1)N[C@@H](C)C(=O)N1[C@H](C(=O)O)C[C@@H]2CCC[C@@H]21` [ramipril]: the “risk reduction in all cause mortality” value is 27% in [10] (AIRE) and 36% in series [10] (AIREX long-term (three year) follow-up). In series [10] (AIRE, compared to placebo (p=0.017)), the “reduction in the risk of developing severe resistant HF” value is given as 23%. In addition, the “ventricular dilatation and systolic dysfunction” value in series [1] was “prevented ventricular dilatation and further decline of systolic dysfunction”.
As for `CCOC(=O)[C@H](CCc1ccccc1)N[C@@H](C)C(=O)N1CCC[C@H]1C(=O)O` [enalapril], the “reduction of mortality at one year” value in series [11] (enalapril plus diuretics compared to placebo plus diuretics) is given as 31%. Moreover, the mortality entry in series [11] (group with baseline aldosterone plasma levels above the median) is given as “reduced”; in series [11] (group with baseline aldosterone plasma levels below the median), “no difference from placebo”.
Regarding `COC(=O)[C@@H]1CC2=CC(=O)CC[C@]2(C)[C@@]23O[C@@H]2C[C@@]2(C)[C@@H](CC[C@@]24CCC(=O)O4)[C@H]13` [Form L], the “physical stability relative to Form H” value in [12] is given as “greater physical stability”.
Take `COC(=O)[C@@H]1CC2=CC(=O)CC[C@]2(C)[C@@]23O[C@@H]2C[C@@]2(C)[C@@H](CC[C@@]24CCC(=O)O4)[C@H]13` [Form H]: the “dissolution rate relative to unformulated Form L” value in series [13] is “approximately 30%”.
